Patent publication US12054497B2, “Substituted heterocyclic fused cyclic compound, preparation method therefor and pharmaceutical use thereof” (GENFLEET THERAPEUTICS (SHANGHAI) INC., priority 2019, dated 2024)
Where two headings read alike, the source gives them in different places.

Columns and labels:
[1] = tested on: A549 cells with Kras G12S mutation; assay: Cell proliferation inhibition experiment, 3D spheroid, CellTiter-Glo (Test Example 1); type: cell-based, human; settings: 5 days
Protocol: (§1) NCI-H358 was a human NSCLC cell line with Kras G12C mutation, which was cultured in a RPMI-1640 medium with 10% fetal bovine serum (FBS). A549 was a human lung adenocarcinoma cell line with Kras G12S mutation, which was cultured in an F-12K medium with 10% FBS. Cells in logarithmic growth phase were detached with trypsin and EDTA, collected and counted, and H358 was regulated to 1.8E4 cells/ml by using an RPMI-1640 medium with 2% FBS, while A549 was regulated to 8.9E3 cells/ml with an F-12K medium containing 2% FBS. 800 (45 μl) H358 cells and 400 (45 μl) A549 cells were seeded to 384-well spheroid plates, respectively, and cultured overnight to establish 3D cell models. 1000× stock solutions of compounds at a concentration gradient of 3.16 were prepared by using DMSO, and diluted 100 times by the medium with 2% FBS into 10× stock solutions of compounds. On the day after cell seeding, 5 μl of 10× stock solution of a compound was added to each well of cell culture plate, with a final concentration being 1× and a DMSO content of 0.1%. DMSO was used as the control, and the medium with 2% FBS was used as blank control group. After 5 days of cell culture with the compound, 25 μl of CellTiter-Glo working solution was added to each well, and mixed uniformly at 400 rpm and incubation for 30 minutes. After standing at room temperature for 30 minutes, 40 μl of mixed solution was transferred to a 384-well plate with white clear bottom. A value of luminescence was then read, and a cell proliferation inhibition rate (IR) (%)=(RLU control-RLU compound)/(RLU control−RLU blank)×100%. The value of IC50 was calculated by fitting a gradiently diluted concentration of the compound and the corresponding cell proliferation inhibition rate using a Prism 6 four-parameter method.

[2] = tested on: NCI-H358 cells with Kras G12C mutation; assay: as above; type: cell-based, human; settings: 5 days
Protocol: as §1

[3] = molecular target: KRas G12C (Homo sapiens (Human), UniProt P01116, G12C); assay: Nucleotide exchange assay (NEA)-HTRF, SOS1 catalyzed displacement of GDP by GTP (Test Example 4); type: biochemical
Protocol: The effects of compounds on SOS1 catalyzed displacement of GDP by GTP on KRas proteins was examined by homogeneous time-resolved fluorescence (HTRF). 30 μM 6×his labeled KRas G12C recombinant protein and 80 μM fluorochrome DY647 labeled GDP were co-incubated in a labeling buffer (1 mM DTT, 7.5 mM EDTA, 25 mM Tris-HCl, 45 mM NaCl) at 20° C. away from light for 2 hours. Protein quantification was performed after purification on the NAP-5 column to determine the concentration of KRas G12C-GDP.
1000× stock solutions of compounds at a concentration gradient of 3.16 were prepared by using DMSO, and diluted 250 times by a reaction buffer (40 mM N-2-hydroxyethylpiperazine-N-2-ethane sulfonic acid (HEPES), 10 mM MgCl2, 1 mM DTT, 0.002% Triton X-100) into 4× stock solutions of compounds. KRas G12C-GDP/Tb working solution (40 nM KRas G12C-GDP, 1×anti-his Tb) and SOS1/GTP working solution (0.2 μM SOS1, 200 μM GTP) were prepared by using the reaction buffer.
5 μl of 4×stock solution of a compound and 10 μl of KRas G12C-GDP/T working solution were added to each well of 96-well plate with white unclear bottom, and 5 μl of reaction buffer was added to the well of control group in stead of the 4×stock solution of a compound. After incubation at 20° C. away from light for 15 minutes, 5 μl of SOS1/GTP working solution was added and incubated at 20° C. away from light for 2 hours, and then a value of fluorescence intensity was read (excitation wavelength: 320 nm, and emission wavelengths: 615 nm and 665 nm). Besides, group TO was established with 10 μl of the reaction buffer and 10 μl of the KRas G12C-GDP/Tb working solution, and the value of fluorescence intensity was directly read. A relative light unit (RLU) was calculated by the following equation: RLU=(665 nm signal/615 nm signal)×10^4; and the inhibition rate (IR) of the compound was calculated by the following equation: IR (%)=(RLUcompound−RLUcontrol)/(RLUT0−RLUcontrol)×100%. The value of IC50 was calculated by fitting a gradiently diluted concentration of the compound and the corresponding cell proliferation inhibition rate using a four-parameter method.

[4] = tested on: phosphorylated ERK in MIA PaCa2 cells with Kras G12C mutation; assay: p-ERK HTRF assay for cells (Test Example 2); type: cell-based, human; settings: MIA PaCa2 cells, 2 hours with compound, read-out: p-ERK IC50
Protocol: MIA PaCa2 was a human pancreatic carcinoma cell line with Kras G12C mutation, which was cultured in a DMEM with 10% FBS and 2.5% Horse serum. Cells in logarithmic growth phase were detached with trypsin and EDTA, collected and counted, and 2.5E4 cells were seeded to a 96-well cell culture plate and cultured overnight. 1000× stock solutions of compounds at a concentration gradient of 3.16 were prepared by using DMSO, and diluted 200 times by the medium into 5× stock solutions of compounds. On the day after cell seeding, 5× stock solution of a compound was added to each well of cell culture plate, with a final concentration being 1× and a DMSO content of 0.1%. DMSO was used as the control. The residual culture was removed after culturing for 2 hours with the compound. To each well, 50 ul of cell lysis buffer was added and mixed uniformly and incubation for 30 minutes. Subsequently, 16 ul of mixed solution was transferred to a 96-well plate with white unclear bottom, and 16 ul of cell lysis buffer was added to the blank control group. After the completion of transfer, 4 ul of p-ERK HTRF antibody mixture was added to each well, and a value of fluorescence intensity was read after incubation for 4 hours. The inhibition rate (IR) of the compound was calculated by the following equation: IR (%)=(RLU control-RLU compound)/(RLU control−RLU blank)×100%. The value of IC50 was calculated by fitting a gradiently diluted concentration of the compound and the corresponding cell proliferation inhibition rate using a Prism 8 four-parameter method.

[5] = tested on: MIA PaCa-2 cells with Kras G12C mutation; assay: Cell proliferation inhibition experiment, 3D spheroid, CellTiter-Glo (Test Example 3); type: cell-based, human; settings: 5 days, read-out: MIA-PaCa2 IC50
Protocol: MIA PaCa-2 was a human pancreatic carcinoma cell line with Kras G12C mutation, which was cultured in a DMEM with 10% FBS and 2.5% Horse serum. A549 was a human lung adenocarcinoma cell line with Kras G12S mutation, which was cultured in an F-12K medium with 10% FBS. Cells in logarithmic growth phase were detached with trypsin and EDTA, collected and counted, and 200 MIA PaCa-2 cells and 400 A549 cells were seeded to 384-well spheroid plates, respectively, and cultured overnight to establish 3D cell models. 1000× stock solutions of compounds at a concentration gradient of 3.16 were prepared by using DMSO, and diluted 100 times by the medium into 10× stock solutions of compounds. On the day after cell seeding, 10× stock solution of a compound was added to each well of cell culture plate, with a final concentration being 1× and a DMSO content of 0.1%. DMSO was used as the control, and the medium was used as the blank. After 5 days of cell culture with the compound, 30 μl of CellTiter-Glo working solution was added to each well, and mixed uniformly and incubation for 30 minutes. After standing at room temperature for 30 minutes, 40 μl of mixed solution was transferred to a 384-well plate with white unclear bottom. A value of luminescence intensity was then read, and a cell proliferation inhibition rate (IR) (%)=(RLU control−RLU compound)/(RLU control−RLU blank)×100%. The value of IC50 was calculated by fitting a gradiently diluted concentration of the compound and the corresponding cell proliferation inhibition rate using an XLFit four-parameter method.

[6] = tested on: subcutaneous xenograft tumor model of MIA PaCa-2; assay: In vivo pharmacodynamic experiment, tumor growth inhibition (Test Example 5); parameters: species or system BALB/c nude mice; settings: p.o., QD; for TGI: day 14
Protocol: Experimental objective: to evaluate the in vivo pharmaceutical effects of tested compounds on the subcutaneous xenograft tumor model of MIA PaCa-2.
Experimental operation: 6 to 8 weeks old female BALB/c nude mice each having the body weight of 18-20 g were chosen. MIA PaCa-2 cells were cultured in DMEM containing 10% FBS, 2.5% HS and 1% penicillin-streptomycin at 37° C. in an incubator with 5% CO2. Cells were collected. The MIA PaCa-2 cells were subcutaneously inoculated to the animals at their backs on the right, 2.0×10^6 cells (0.1 mL) for each animal. When tumor grew to 190-311 mm^3, mice with tumor having a suitable size were chosen and treated in groups, with administration dosages shown in Table 5 below. The animals were weighed on an electronic balance each day. The tumor volume was investigated by using a vernier caliper twice a week. The tumor volume was calculated by the following equation: V=0.5 a×b^2, a and b representing the long diameter and the short diameter of the tumor, respectively. The tumor volume was used to calculate a tumor growth inhibition rate (TGI), and the TGI shown in the form of a percentage was used to indicate the antineoplastic activity of a compound. The TGI was calculated by the following equation: TGI (%)=[1−avTi−0/avCi−0)]×100, with avTi−0 representing the average tumor volume of the group administrated with the compound on a specific day minus the average tumor volume of this group on the day of grouping, and avCi−0 representing the average tumor volume of the solvent control group on a specific day minus the average tumor volume of the solvent control group on the day of grouping. The tumor volume was shown in the form of an average value±standard error of mean (SEM).

[7] = Homo sapiens, MIA PaCa-2, 120 h

Chain of KRas G12C (P01116-2 other isoform, or with tags, fused parts or gaps G12C): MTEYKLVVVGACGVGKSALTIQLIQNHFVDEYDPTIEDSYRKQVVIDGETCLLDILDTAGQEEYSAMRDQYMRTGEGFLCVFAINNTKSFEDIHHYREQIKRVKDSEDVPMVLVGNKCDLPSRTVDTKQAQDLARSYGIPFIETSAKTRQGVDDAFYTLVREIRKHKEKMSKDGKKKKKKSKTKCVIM

| Compound | IC50 [1] [nM] | IC50 [2] [nM] | IC50 ([1]; Homo sapiens, A549, 120 h) [nM] | IC50 ([2]; Homo sapiens, NCI-H358, 120 h) [nM] | IC50 ([4]; Homo sapiens, MIA PaCa-2, 2 h) [nM] | IC50 [5, 7] [nM] | also measured |
| --- | --- | --- | --- | --- | --- | --- | --- |
| [2H]C([2H])([2H])N1C(=O)[C@H]2CN(C(=O)C=C)CCN2c2c1c(=O)n(-c1c(C)ccnc1C(C)C)c1nc(-c3c(O)cccc3F)c(Cl)cc21 (single isomer, unassigned) [Compound Z26-1] | > 30000 | 42 | – | – | – | – | IC50 [3]: 868 nM |
| C=CC(=O)N1C[C@@H]2COc3c(c4cc(F)c(-c5c(O)cccc5F)nc4n(-c4c(C)ccnc4C(C)C)c3=O)N2C[C@H]1C [Compound Z3, (6aR,9R)-8-acryloyl-3-fluoro-2-(2-fluoro-6-hydroxyphenyl)-13-(2-isopropyl-4-methylpyridin-3-yl)-9-methyl-6,6a,7,8,9,10-hexahydropyrazino[1′,2′:4,5][1,4]oxopyrazino[3,2-c][1,8]naphthyridin-12(13H)-one] | – | – | > 10000 | 16 | 160 | 18 | – |
| C=CC(=O)N1CC2C(=O)N(C)c3c(c4cc(F)c(-c5c(O)cccc5F)nc4n(-c4c(C(F)(F)F)ccnc4C(C)C)c3=O)N2C[C@H]1C (single isomer, unassigned) [Compound Z49-1] | 9420 | 9 | – | – | 114 | 12 | – |
| C=CC(=O)N1CCN2c3c(c(=O)n(-c4c(C)ccnc4C(C)C)c4nc(-c5c(O)cccc5F)c(F)cc34)N(CC)C(=O)[C@H]2C1 (single isomer, unassigned) [Compound Z30-2] | > 30000 | 47 | – | – | – | – | IC50 [4]: 488 nM; IC50 [5]: 130 nM |
| C=CC(=O)N1C[C@@H]2C(=O)N(C)c3c(c4cc(Cl)c(-c5c(O)cccc5F)nc4n(-c4c(C(C)C)ncnc4C(C)C)c3=O)N2C[C@H]1C [Compound Z23, (2R,4aR)-3-acryloyl-11-chloro-8-(4,6-diisopropylpyrimidin-5-yl)-10-(2-fluoro-6-hydroxyphenyl)-2,6-dimethyl-2,3,4,4a,6,8-hexahydro-1H-pyrazino[1′,2′:4,5]pyrazino[2,3-c][1,8]naphthyridin-5,7-dione] | – | – | 10500 | 2 | 17 | 2 | Tumor Volume on Day 14 after Administration ([6]; 1 mg/kg): 194.65 mm^3; TGI ([6]; 1 mg/kg): 113.2%; Tumor Volume on Day 14 after Administration ([6]; 3 mg/kg): 59.52 mm^3; TGI ([6]; 3 mg/kg): 143.5%; Tumor Volume on Day 14 after Administration ([6]; 10 mg/kg): 47.32 mm^3; TGI ([6]; 10 mg/kg): 149.2% |
| C=CC(=O)N1C[C@@H]2C(=O)N(C)c3c(c4cc(F)c(-c5c(O)cccc5F)nc4n(-c4c(C)cc(C)nc4C(C)C)c3=O)N2C[C@H]1C [Compound Z46] | – | – | 10300 | 12 | 224 | 68 | – |
| C=CC(=O)N1C[C@@H]2C(=O)Nc3c(c4cc(F)c(-c5c(O)cccc5F)nc4n(-c4c(C(C)C)ncnc4C(C)C)c3=O)N2C[C@H]1C [Compound Z45, (2R,4aR)-3-acryloyl-8-(4,6-diisopropylpyrimidin-5-yl)-11-fluoro-10-(2-fluoro-6-hydroxyphenyl)-2-methyl-2,3,4,4a,6,8-hexahydro-1H-pyrazino[1′,2′:4,5]pyrazino[2,3-c][1,8]naphthyridin-5,7-dione] | – | – | > 30000 | 13 | 122 | 48 | – |
| C=CC(=O)N1CCN2c3c(c(=O)n(-c4c(C)ccnc4C(C)C)c4nc(-c5c(O)cccc5F)c(F)cc34)OC[C@H]2C1 (atropisomer, axis not shown) [Compound Z1-2] | – | – | – | – | – | – | IC50 [3]: 1430 nM |
